Calls of active or inactive are those of the source. No cut-off for these calls is given here.
Test system: Staphylococcus aureus
Assay: Antibacterial activity against Staphylococcus aureus assessed as inhibition of biofilm formation
Type: functional, organism-based
Settings: not given

Structure (SMILES) | Activity
COC(=O)C1C(=O)C(C(=O)OC)[C@H](c2ccc([N+](=O)[O-])cc2)N(Cc2ccccc2)[C@@H]1c1ccc([N+](=O)[O-])cc1 (some centres undefined) | inactive
COC(=O)C1C(=O)[C@H](C(=O)OC)C(c2ccccn2)N[C@@H]1c1ccccn1 (some centres undefined) | inactive
COC(=O)C1=C(O)C[C@H](c2ccccn2)N(Cc2ccc(C)cc2)[C@@H]1c1ccccn1 | inactive
COC(=O)C1=C(O)C[C@@H](c2ccccn2)N(Cc2ccccc2)[C@H]1c1ccccn1 | inactive
CC[C@@H]1CC2(C[C@H](CC)N1Cc1ccccc1)C(=O)N(Cc1ccc([N+](=O)[O-])cc1)C(=O)N2c1ccccc1 (some centres undefined) | inactive
COC(=O)C1=C(O)C[C@H](c2ccccn2)N(Cc2ccc(OC)cc2)[C@@H]1c1ccccn1 | inactive
COC(=O)C1C(=O)C(C(=O)OC)[C@H](c2cccc([N+](=O)[O-])c2)N(Cc2ccc(C)cc2)[C@@H]1c1cccc([N+](=O)[O-])c1 (some centres undefined) | inactive
CCOC(=O)C1C(=O)C(C(=O)OCC)[C@H](c2ccc([N+](=O)[O-])cc2)N(Cc2ccccc2)[C@@H]1c1ccc([N+](=O)[O-])cc1 (some centres undefined) | inactive

Test system: Plasmodium falciparum
Assay: Antiplasmodial activity against Plasmodium falciparum NF54 infected mice (Mus musculus) after 72 hrs
Type: functional, organism-based
Settings: NF54, 72 h

IC50 [µM] | Structure (SMILES)
11.9 | COC(=O)C1C(=O)C(C(=O)OC)[C@H](c2ccc([N+](=O)[O-])cc2)N(Cc2ccccc2)[C@@H]1c1ccc([N+](=O)[O-])cc1 (some centres undefined)
10.1 | CCOC(=O)C1C(=O)C(C(=O)OCC)[C@H](c2ccc([N+](=O)[O-])cc2)N(Cc2ccccc2)[C@@H]1c1ccc([N+](=O)[O-])cc1 (some centres undefined)

Test system: Trypanosoma brucei brucei
Assay: Antitrypanosomal activity against Trypanosoma brucei brucei TC221
Type: functional
Settings: read-out: ED50 (the source's name)

EC50 [µM] | Structure (SMILES)
0.0027 | N=C(N)c1ccc(OCCCCCOc2ccc(C(=N)N)cc2)cc1 [PENTAMIDINE ISETHIONATE]
22.9 | NCCCC(N)(C(=O)O)C(F)F (centres undefined) [EFLORNITHINE]
3.01 | COC(=O)C1C(=O)C(C(=O)OC)[C@H](c2ccc([N+](=O)[O-])cc2)N(Cc2ccccc2)[C@@H]1c1ccc([N+](=O)[O-])cc1 (some centres undefined)
0.47 | COC(=O)C1=C(O)C[C@H](c2ccccn2)N(Cc2ccc(C)cc2)[C@@H]1c1ccccn1
25.4 | CC[C@@H]1CC2(C[C@H](CC)N1Cc1ccccc1)C(=O)N(Cc1ccc([N+](=O)[O-])cc1)C(=O)N2c1ccccc1 (some centres undefined)
0.43 | COC(=O)C1=C(O)C[C@H](c2ccccn2)N(Cc2ccc(OC)cc2)[C@@H]1c1ccccn1
2.72 | CCOC(=O)C1C(=O)C(C(=O)OCC)[C@H](c2ccc([N+](=O)[O-])cc2)N(Cc2ccccc2)[C@@H]1c1ccc([N+](=O)[O-])cc1 (some centres undefined)

Test system: Leishmania major
Assay: Antileishmanial activity against Leishmania major MHOM/IL/81/FE/BNI infected in BALB/c mouse
Type: functional
Settings: not given

Structure (SMILES) | ED50 [µM]
COC(=O)C1C(=O)C(C(=O)OC)[C@H](c2ccccn2)N(CCCCCCCC(=O)O)[C@@H]1c1ccccn1 (some centres undefined) | 50.34
COC(=O)C1C(=O)C(C(=O)OC)[C@H](c2ccc([N+](=O)[O-])cc2)N(Cc2ccccc2)[C@@H]1c1ccc([N+](=O)[O-])cc1 (some centres undefined) | >100
COC(=O)C1C(=O)[C@H](C(=O)OC)C(c2ccccn2)N[C@@H]1c1ccccn1 (some centres undefined) | >100
COC(=O)C1=C(O)C[C@H](c2ccccn2)N(Cc2ccc(C)cc2)[C@@H]1c1ccccn1 | 83.83
COC(=O)C1=C(O)C[C@@H](c2ccccn2)N(Cc2ccccc2)[C@H]1c1ccccn1 | 25.97
CC[C@@H]1CC2(C[C@H](CC)N1Cc1ccccc1)C(=O)N(Cc1ccc([N+](=O)[O-])cc1)C(=O)N2c1ccccc1 (some centres undefined) | >100
COC(=O)C1=C(O)C[C@H](c2ccccn2)N(Cc2ccc(OC)cc2)[C@@H]1c1ccccn1 | 30
COC(=O)C1C(=O)C(C(=O)OC)[C@H](c2cccc([N+](=O)[O-])c2)N(Cc2ccc(C)cc2)[C@@H]1c1cccc([N+](=O)[O-])c1 (some centres undefined) | >100

Test system: not listed separately
Assay: Cytotoxicity against mouse J774.1 cells after 48 hrs
Type: cell-based
Settings: read-out: ED50

Structure (SMILES) | CC50 at 48 h [µM]
COC(=O)C1C(=O)C(C(=O)OC)[C@H](c2ccccn2)N(CCCCCCCC(=O)O)[C@@H]1c1ccccn1 (some centres undefined) | 33.8
COC(=O)C1C(=O)C(C(=O)OC)[C@H](c2ccc([N+](=O)[O-])cc2)N(Cc2ccccc2)[C@@H]1c1ccc([N+](=O)[O-])cc1 (some centres undefined) | 18.4
COC(=O)C1C(=O)[C@H](C(=O)OC)C(c2ccccn2)N[C@@H]1c1ccccn1 (some centres undefined) | > 100
COC(=O)C1=C(O)C[C@H](c2ccccn2)N(Cc2ccc(C)cc2)[C@@H]1c1ccccn1 | 34.9
COC(=O)C1=C(O)C[C@@H](c2ccccn2)N(Cc2ccccc2)[C@H]1c1ccccn1 | 33.2
CC[C@@H]1CC2(C[C@H](CC)N1Cc1ccccc1)C(=O)N(Cc1ccc([N+](=O)[O-])cc1)C(=O)N2c1ccccc1 (some centres undefined) | > 100
COC(=O)C1=C(O)C[C@H](c2ccccn2)N(Cc2ccc(OC)cc2)[C@@H]1c1ccccn1 | 29.9
COC(=O)C1C(=O)C(C(=O)OC)[C@H](c2cccc([N+](=O)[O-])c2)N(Cc2ccc(C)cc2)[C@@H]1c1cccc([N+](=O)[O-])c1 (some centres undefined) | 49.8
CCOC(=O)C1C(=O)C(C(=O)OCC)[C@H](c2ccc([N+](=O)[O-])cc2)N(Cc2ccccc2)[C@@H]1c1ccc([N+](=O)[O-])cc1 (some centres undefined) | > 100

Test system: Human immunodeficiency virus 1
Assay: Antiviral activity against HIV1 BaL replication in PM1 cells
Type: functional
Settings: not given

Structure (SMILES) | Inhibition [%]
COC(=O)C1C(=O)C(C(=O)OC)[C@H](c2ccc([N+](=O)[O-])cc2)N(Cc2ccccc2)[C@@H]1c1ccc([N+](=O)[O-])cc1 (some centres undefined) | 20
CCOC(=O)C1C(=O)C(C(=O)OCC)[C@H](c2ccc([N+](=O)[O-])cc2)N(Cc2ccccc2)[C@@H]1c1ccc([N+](=O)[O-])cc1 (some centres undefined) | 20

Test system: Human immunodeficiency virus 1
Assay: Antiviral activity against HIV1 NL4/3 replication in PM1 cells
Type: functional
Settings: not given

Structure (SMILES) | Inhibition [%]
COC(=O)C1C(=O)C(C(=O)OC)[C@H](c2ccc([N+](=O)[O-])cc2)N(Cc2ccccc2)[C@@H]1c1ccc([N+](=O)[O-])cc1 (some centres undefined) | 20
CCOC(=O)C1C(=O)C(C(=O)OCC)[C@H](c2ccc([N+](=O)[O-])cc2)N(Cc2ccccc2)[C@@H]1c1ccc([N+](=O)[O-])cc1 (some centres undefined) | 20

Test system: Plasmodium falciparum
Assay: Antiplasmodial activity against chloroquine-sensitive Plasmodium falciparum NF54
Type: functional, organism-based
Settings: not given

IC50 [µM] | Structure (SMILES)
8.2 | Cc1cc(C2CCCCC2)n(O)c(=O)c1 [CICLOPIROX OLAMINE]

Test system: Plasmodium falciparum
Assay: Antiplasmodial activity against chloroquine-sensitive Plasmodium falciparum
Type: functional, organism-based
Settings: not given

IC50 | Structure (SMILES) | Activity
 | COC(=O)C1C(=O)C(C(=O)OC)[C@H](c2ccccn2)N(CCCCCCCC(=O)O)[C@@H]1c1ccccn1 (some centres undefined) | inactive
Not Active | COC(=O)C1C(=O)[C@H](C(=O)OC)C(c2ccccn2)N[C@@H]1c1ccccn1 (some centres undefined) | 
Not Active | COC(=O)C1=C(O)C[C@@H](c2ccccn2)N(Cc2ccccc2)[C@H]1c1ccccn1 | 
Not Active | CC[C@@H]1CC2(C[C@H](CC)N1Cc1ccccc1)C(=O)N(Cc1ccc([N+](=O)[O-])cc1)C(=O)N2c1ccccc1 (some centres undefined) | 

Structure (SMILES) | IC50 | Activity
COC(=O)C1C(=O)C(C(=O)OC)[C@H](c2cccc([N+](=O)[O-])c2)N(Cc2ccc(C)cc2)[C@@H]1c1cccc([N+](=O)[O-])c1 (some centres undefined) | Not Active | 

From ChEMBL document CHEMBL1140714, “In search of novel agents for therapy of tropical diseases and human immunodeficiency virus” (J Med Chem, 2008)
